Data as given in publication PMC9844538 (Nature chemical biology, 2022).
Starred links: 1 amine or outer side, 2 acyl side, 3 side chain; linkers in the order of their positions; H or OH if unused. Positions of bridges follow the written chain, without caps; N, C: chain ends. Non-standard residues stand in square brackets, D forms with d. Residues, ends and D or L forms follow the SMILES beside them. *: point of attachment. βAsp = O=C(O)[C@H](CC(=O)[*:2])N[*:1]; His(π-Me) = Cn1cncc1C[C@H](N)C(=O)O; For = O=C*

Experiments:
[1] = tested on: E. coli WO153; test: Macromolecule incorporation assay; format: cell-based, Escherichia coli; conditions: 8x MIC of evybactin
[2] = tested on: mouse; test: Toxicity in a mouse; format: in vivo; conditions: intraperitoneally, 100 mg kg^−1, survival observed for 24 hours
[3] = Solubility in water
[4] = tested on: M. tuberculosis H37Rv mc^26020; test: Vitamin B12 competition assay; format: cell-based, Mycobacterium tuberculosis; conditions: 1,000-fold molar excess of vitamin B12, 7 days, 37 °C
[5] = tested on: HepG2
[6] = tested on: FaDu
[7] = tested on: HEK293
[8] = molecular target: T1, M. tuberculosis gyrase (MtbGyrase) (Mycobacterium tuberculosis, UniProt P9WG45+P9WG47); test: Supercoiling assay; format: biochemical
T1 sequence (P9WG45 whole entry, looked up): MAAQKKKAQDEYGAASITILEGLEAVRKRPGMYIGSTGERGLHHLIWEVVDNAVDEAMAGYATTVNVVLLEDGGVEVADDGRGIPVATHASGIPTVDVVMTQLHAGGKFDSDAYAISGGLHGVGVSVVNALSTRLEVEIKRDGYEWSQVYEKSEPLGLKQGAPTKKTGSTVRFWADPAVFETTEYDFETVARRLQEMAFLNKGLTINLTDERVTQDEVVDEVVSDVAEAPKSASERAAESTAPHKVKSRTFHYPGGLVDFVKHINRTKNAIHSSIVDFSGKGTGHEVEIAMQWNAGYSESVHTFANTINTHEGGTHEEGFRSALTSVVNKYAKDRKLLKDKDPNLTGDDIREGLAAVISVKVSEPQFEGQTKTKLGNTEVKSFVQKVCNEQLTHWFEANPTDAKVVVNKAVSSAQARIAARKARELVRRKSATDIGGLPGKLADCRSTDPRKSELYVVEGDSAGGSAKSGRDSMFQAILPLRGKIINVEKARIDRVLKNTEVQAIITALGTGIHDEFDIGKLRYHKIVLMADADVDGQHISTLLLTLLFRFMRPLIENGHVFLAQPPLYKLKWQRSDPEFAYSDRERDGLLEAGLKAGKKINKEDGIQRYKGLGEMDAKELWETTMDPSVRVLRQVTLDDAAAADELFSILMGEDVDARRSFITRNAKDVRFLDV
T1 sequence (P9WG47 whole entry, looked up): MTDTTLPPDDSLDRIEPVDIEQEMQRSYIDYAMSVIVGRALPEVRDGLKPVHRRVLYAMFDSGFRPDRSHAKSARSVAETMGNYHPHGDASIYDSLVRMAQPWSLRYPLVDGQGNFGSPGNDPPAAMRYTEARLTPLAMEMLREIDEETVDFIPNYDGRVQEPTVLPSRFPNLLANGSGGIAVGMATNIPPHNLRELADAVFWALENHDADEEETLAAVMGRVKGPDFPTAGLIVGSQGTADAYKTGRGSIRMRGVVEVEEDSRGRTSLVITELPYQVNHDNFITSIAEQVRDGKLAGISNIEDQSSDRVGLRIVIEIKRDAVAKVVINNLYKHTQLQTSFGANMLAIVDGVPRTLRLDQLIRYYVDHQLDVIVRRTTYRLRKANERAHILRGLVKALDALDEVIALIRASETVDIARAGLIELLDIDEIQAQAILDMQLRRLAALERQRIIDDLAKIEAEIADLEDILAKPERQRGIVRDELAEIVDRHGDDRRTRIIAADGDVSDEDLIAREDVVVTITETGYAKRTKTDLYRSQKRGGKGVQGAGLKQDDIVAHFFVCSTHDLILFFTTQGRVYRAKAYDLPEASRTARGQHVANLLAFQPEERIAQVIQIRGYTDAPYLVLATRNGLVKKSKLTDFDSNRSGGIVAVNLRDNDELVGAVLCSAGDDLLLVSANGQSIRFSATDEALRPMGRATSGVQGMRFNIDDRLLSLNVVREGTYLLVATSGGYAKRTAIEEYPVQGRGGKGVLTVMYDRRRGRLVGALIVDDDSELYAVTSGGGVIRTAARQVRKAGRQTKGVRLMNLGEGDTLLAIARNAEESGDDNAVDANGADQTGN

[9] = molecular target: E. coli gyrase (Escherichia coli, UniProt P0AES4+P0AES6); test: Supercoiling assay; format: biochemical; conditions: 100 μM evybactin, 0–20 nM enzyme, strong cleavage visible at 5 nM enzyme
E. coli gyrase, sequence (P0AES4 whole entry, one chain of several): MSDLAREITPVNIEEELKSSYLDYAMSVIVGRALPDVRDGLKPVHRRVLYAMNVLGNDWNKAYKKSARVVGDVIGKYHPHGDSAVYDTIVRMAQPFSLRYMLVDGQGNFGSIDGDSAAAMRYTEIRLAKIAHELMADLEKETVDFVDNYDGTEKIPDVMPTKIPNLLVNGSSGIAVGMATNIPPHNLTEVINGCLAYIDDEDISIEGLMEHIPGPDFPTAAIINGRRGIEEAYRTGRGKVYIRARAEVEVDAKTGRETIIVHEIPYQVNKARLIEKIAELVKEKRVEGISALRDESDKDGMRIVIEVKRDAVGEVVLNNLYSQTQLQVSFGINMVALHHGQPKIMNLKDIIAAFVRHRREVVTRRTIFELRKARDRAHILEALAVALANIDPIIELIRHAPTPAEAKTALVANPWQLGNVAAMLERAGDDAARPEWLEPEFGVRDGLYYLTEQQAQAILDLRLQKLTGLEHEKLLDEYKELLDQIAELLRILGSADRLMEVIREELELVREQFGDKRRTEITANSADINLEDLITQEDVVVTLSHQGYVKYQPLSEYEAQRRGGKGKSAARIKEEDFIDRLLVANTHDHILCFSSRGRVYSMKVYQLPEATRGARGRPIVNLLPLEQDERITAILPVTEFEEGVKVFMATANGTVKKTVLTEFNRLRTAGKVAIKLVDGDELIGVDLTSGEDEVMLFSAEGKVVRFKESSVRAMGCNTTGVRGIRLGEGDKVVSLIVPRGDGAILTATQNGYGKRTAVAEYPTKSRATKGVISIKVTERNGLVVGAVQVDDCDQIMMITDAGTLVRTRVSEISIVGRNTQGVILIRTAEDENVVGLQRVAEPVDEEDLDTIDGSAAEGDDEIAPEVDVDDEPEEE

[10] = tested on: commensal bacteria, including Lactobacillus sp. and Bacteroides sp.; test: Activity against commensal bacteria; format: cell-based
[11] = tested on: M. tuberculosis H37Rv mc^26020; test: Time-dependent killing; format: cell-based, Mycobacterium tuberculosis
[12] = molecular target: T1, M. tuberculosis gyrase (MtbGyrase); format: biochemical; conditions: no ATP
[13] = molecular target: E. coli topo IV (Escherichia coli, UniProt P0AFI2+P20083); test: Supercoil relaxation assay; format: biochemical; conditions: 100 μM evybactin, 0–20 nM enzyme
E. coli topo IV, sequence (P0AFI2 whole entry): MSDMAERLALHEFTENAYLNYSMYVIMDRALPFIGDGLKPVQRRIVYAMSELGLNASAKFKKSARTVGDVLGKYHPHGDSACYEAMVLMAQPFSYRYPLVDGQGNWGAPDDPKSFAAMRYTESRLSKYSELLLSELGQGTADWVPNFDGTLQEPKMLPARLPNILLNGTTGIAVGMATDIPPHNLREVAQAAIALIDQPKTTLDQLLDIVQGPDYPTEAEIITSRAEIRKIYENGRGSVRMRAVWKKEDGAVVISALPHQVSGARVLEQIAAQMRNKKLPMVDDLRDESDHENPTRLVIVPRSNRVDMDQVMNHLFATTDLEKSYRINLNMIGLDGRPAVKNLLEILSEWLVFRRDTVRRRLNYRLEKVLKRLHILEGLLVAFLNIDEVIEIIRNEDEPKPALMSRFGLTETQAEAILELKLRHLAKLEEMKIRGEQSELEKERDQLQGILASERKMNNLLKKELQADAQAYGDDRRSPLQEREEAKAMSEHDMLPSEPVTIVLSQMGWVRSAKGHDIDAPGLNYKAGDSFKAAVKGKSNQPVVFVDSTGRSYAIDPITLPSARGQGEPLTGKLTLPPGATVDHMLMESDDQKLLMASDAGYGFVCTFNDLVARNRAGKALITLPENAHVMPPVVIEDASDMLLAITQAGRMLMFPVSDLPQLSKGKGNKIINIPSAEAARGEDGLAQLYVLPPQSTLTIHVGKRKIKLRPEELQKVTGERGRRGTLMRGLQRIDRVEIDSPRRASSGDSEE
E. coli topo IV, sequence (P20083 whole entry): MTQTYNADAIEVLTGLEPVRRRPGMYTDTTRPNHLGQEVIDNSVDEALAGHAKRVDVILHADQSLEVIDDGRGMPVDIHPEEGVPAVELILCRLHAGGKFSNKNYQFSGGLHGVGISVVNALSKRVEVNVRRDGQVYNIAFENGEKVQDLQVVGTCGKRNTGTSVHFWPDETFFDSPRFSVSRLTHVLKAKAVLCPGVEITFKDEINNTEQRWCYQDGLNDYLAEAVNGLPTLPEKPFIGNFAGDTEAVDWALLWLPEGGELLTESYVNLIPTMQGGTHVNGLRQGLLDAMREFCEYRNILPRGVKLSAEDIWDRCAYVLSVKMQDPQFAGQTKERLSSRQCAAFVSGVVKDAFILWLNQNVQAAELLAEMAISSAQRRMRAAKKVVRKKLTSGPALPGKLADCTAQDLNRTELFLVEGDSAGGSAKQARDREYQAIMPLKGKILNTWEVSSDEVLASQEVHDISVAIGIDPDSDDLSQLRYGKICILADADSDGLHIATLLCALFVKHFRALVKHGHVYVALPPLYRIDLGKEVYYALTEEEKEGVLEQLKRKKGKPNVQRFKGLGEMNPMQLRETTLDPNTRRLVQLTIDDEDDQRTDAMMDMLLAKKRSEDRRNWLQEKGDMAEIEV

[14] = tested on: M. tuberculosis; test: Cell elongation, microscopy; format: cell-based, Mycobacterium tuberculosis
[15] = molecular target: MtbGyrase (Mycobacterium tuberculosis, UniProt P9WG45+P9WG47); format: biochemical
[16] = tested on: Mycobacterium tuberculosis H37Rv mc^26020; test: MIC, broth microdilution; format: cell-based; conditions: bleomycin susceptibility, value before the MIC shift

In the case of `C[C@@H](O)[C@H](NC(=O)[C@H](Cc1c[nH]c2ccccc12)NC=O)C(=O)N[C@H](CCCNC(=N)N)C(=O)N[C@@H]1C(=O)N[C@@H](Cc2cncn2C)C(=O)N[C@H](C(=O)O)CC(=O)N[C@H](CO)C(=O)N[C@@H](Cc2ccccc2)C(=O)NCC(=O)N[C@H](CCCNC(=N)N)C(=O)N[C@@H](CO)C(=O)N[C@H](C(=O)O)CC(=O)O[C@@H]1C` [evybactin] (For-WT[dR]T[His(π-Me)][βAsp][dS]FG[dR]S[βAsp]; ester 4-C), the “DNA synthesis (^14C-thymidine incorporation)” value [1] is reported as “inhibits DNA synthesis”, the “RNA, protein and fatty acid synthesis (label incorporation)” value [1] is reported as “less of an effect” and the “toxicity, survival” value [2] is reported as “no indications of toxicity”. For the same compound, the solubility [3] was greater than 40 mg/mL, the “effect of vitamin B12 on evybactin susceptibility” value [4] was “no change in the susceptibility” and the “toxicity against human cells” value [5] was “no toxicity”. For the same compound, the “toxicity against human cells” value [6] was “no toxicity”, the “toxicity against human cells” value [7] was “no toxicity” and the “supercoiling activity and DNA cleavage” value [8] was “inhibited the supercoiling activity”. The DNA cleavage [9] was “stimulated DNA cleavage”, the “activity against commensal bacteria” value [10] was “no activity” and the killing ability [11] was “highly bactericidal”. The “DNA cleavage in the absence of ATP” value [12] was “little to no cleavage”, the DNA cleavage [13] was “stimulated DNA cleavage” and the “cell length versus non-treated cells” value [14] was “approximately two times longer”.
In the case of `COc1c(N2C[C@@H]3CCCN[C@@H]3C2)c(F)cc2c(=O)c(C(=O)O)cn(C3CC3)c12` [moxifloxacin], the “ATPase rate (Vmax)” value [15] is reported as 0.4 ± 0.1 molecules of ATP per second per enzyme.
With bleomycin the “MIC (before shift)” value [16] was 0.06 µg/mL.
